Reference: patent US20170313974A1, “Modulation of Tissue Fatty Acid Composition of a Host by Human Gut Bacteria” (University College Cork, National University of Ireland, priority 2007, published 2017)

How the values were obtained:
Format in all cases: in vivo
splenocytes = assay: Cytokine production by stimulated splenocytes of fed SCID mice with colitis; settings: compared to control
Procedure: (§1) Materials and Methods Severe Combined Immuno Deficient (SCID) mice were used in this study, which had been induced with colitis through adoptive transfer of splenic CD4^+ CD45RB^high T cells from BALB/c mice. […] Ten weeks after colitis induction, cytokine production by splenocytes was measured in vitro by ELISA, myeloperoxidase (MPO) activity was determined in colonic homogenates and fatty acid composition in liver, adipose tissue, cecum and colon was determined by gas liquid chromatography (GLC). Similar studies have also been conducted in pigs (data not shown here) and similar results obtained.
Cytokine production in response to defined stimuli, in vitro, was measured using enzyme-linked immunosorbent assay (ELISA). Splenocyte isolation was performed using an erythrocyte lysing kit (R&D Systems). The spleens of all mice were removed at the time of sacrifice, blotted on filter paper and weighed. Each spleen was immediately placed in Hanks' buffer containing 10% fetal calf serum. The spleen was teased apart and sieved through a cell strainer into a 50 ml centrifuge tube. Cells were centrifuged for 10 minutes at 200 g. The cells were resuspended in 2 ml M-lyse buffer, which lyses red blood cells, and incubated for 8 minutes at room temperature. Lysis was deactivated using wash buffer and the cell suspension was centrifuged for 10 minutes at 200 g. Cells were resuspended in DMEM (10% fetal calf serum, 1% Pen/Strep, Sigma) and diluted to 1×10^6 cells/ml for in vitro culturing. The isolated lymphocytes were cocultured with the proinflammatory bacterium Salmonella typhimurium UK1 (1×10^6 cells/ml) and with antiCD3-antiCD28 monoclonal antibodies for 48 hours at 37° C. Cell supernatants were isolated and stored at −80° C. Cytokine analysis was performed on the supernatants using a BD™ Cytometric Bead Array (CBA) Mouse Inflammation Kit (BD Biosciences, US).

SCID mice = assay: Tissue fatty acid composition, SCID mouse colitis feeding study (10 weeks)
Procedure: as §1
(§2) SCID mice were purchased from Harlan ltd. (Briester, Oxon, UK) at 6 weeks of age and fed a normal diet for 1 week to stabilize all metabolic conditions. Each cage contained one mouse. Mice were exposed to a 12-h light:dark cycle and maintained at a constant temperature of 25° C. One week after arrival, mice were divided into five groups for different dietary treatments (Table I).
For linoleic acid and c9t11 CLA treatment, a powdered diet blended with the drug was administered for 10 weeks to yield a dose of drug at approximately 90 mg/day/mouse (this is based on preliminary experiments by Bassaganya-Riera et al. (22) that established an optimal dose of fatty acids of 1 g/100 g of diet).
After the adoptive transfer, mice were weighed three times a week and examined for clinical signs of disease associated with colitis (ie. rectal bleeding, diarrhoea and rectal prolapse). After 10 weeks on experimental diets, the mice were sacrificed by cervical dislocation. Livers, adipose tissue, spleens, colons and cecums were removed from the carcasses, blotted dry on filter paper, weighed and frozen in liquid nitrogen. All samples were stored at −80° C. until processed. The colon was divided into different sections for MPO activity and fatty acid composition.
(§3) Lipids were extracted with Chloroform:Methanol 2:1 v/v according to Folch et al. (25). Briefly, tissue or faecal samples, ˜1 g liver, 300 mg small intestine, 200 mg adipose tissue, 250 mg colon, 800 mg cecum or 100 mg feaces were homogenised in over a 25 fold excess of CHCl3:CH3OH (2:1 v/v) and washed with 0.88% KCl solution. Excess solvent was dried down under a gentle stream of N2 at 40° C. and lipids were stored at −20° C. in 1 ml chloroform. Fatty acid methyl esters (FAME) were prepared using first 10 ml 0.5N NaOH in methanol for 10 min at 90° C. followed by 10 ml 14% BF3 in methanol for 10 min at 90° C. (26). FAME was recovered with hexane. Prior to GC analysis samples were dried over 0.5 g of anhydrous sodium sulphate for an hour and stored at −20° C. FAME were separated by gas liquid chromatography (GLC Varian 3400, Varian, Walnut Creek, Calif. USA fitted with a flame ionization detector) using a Chrompack CP Sil 88 column (Chrompack, Middleton, The Netherlands, 100 m×0.25 mm i.d., 0.20 μm film thickness) and He as a carrier gas. The column oven was programmed to be held initially at 80° C. for 8 minutes then increased 8.5° C./min to a final column temperature of 200° C. The injection volume used was 0.6 μl with automatic sample injection with a splitless on SPI on-column temperature programmable injector. Data was recorded and analysed on a Minichrom PC system (VG Data System, Manchester, U.K.). Tri-heptadecanoate (Sigma) was used as an internal standard, and peaks were identified with reference to retention times of fatty acids in a standard mixture. All fatty acid results are shown as mean±SD (n=8) g/100 g FAME.

[1] = tested on: Myeloperoxidase (MPO) activity in colonic homogenates; assay: Colonic mucosal myeloperoxidase (MPO) activity in SCID mice with colitis; settings: 10 weeks, mean ± SD, n = 8
Procedure: as §1, §2
SCID mice were induced with colitis through adoptive transfer of the CD4^+ CD45RB^high subpopulation of CD4+ T cells from normal BALB/c mice (Mackay et al. 1998). […]
Myeloperoxidase activity was measured according to the method by Krawisz et al. (24). […] The absorbance (OD) was measured spectrophotometrically at 450 nm at 1 min intervals for 15 min. […] Results are expressed as U/mg protein.

BALB/c mice = assay: Tissue and faecal fatty acid composition, BALB/c LA feeding trial (8 weeks)
Procedure: Male BALB/c mice were purchased from Harlan Ltd. (Briester, Oxon, UK). One week after arrival, these mice were divided into two groups (n=9) for different dietary treatments. […] Group B received 1% LA in their diet. For LA treatment, a powdered diet blended with the drug was administered for 8 weeks to yield a dose of drug at approximately 90 mg/day/mouse (this is based on preliminary experiments by Bassaganya-Riera et al. (1) that established an optimal dose of fatty acids of 1 g/100 g).
After 8 weeks on experimental diets, the mice were sacrificed by cervical dislocation. Livers, hearts, colons, small intestines and cecums were removed from the carcasses, blotted dry on filter paper, weighed and frozen in liquid nitrogen. All samples were stored at −80° C. until processed.
as §3

CCCCC/C=C\C/C=C\CCCCCCCC(=O)O [LA, linoleic acid]
proinflammatory cytokines (splenocytes): no reduction | c9, t11 CLA in cecum digesta (SCID mice; cecum digesta, mean ± SD, n = 8): 0.08 ± 0.02^ g/100 g FAME | c9, t11 CLA in faeces (SCID mice; faeces): 0.09 g/100 g FAME | c9, t11 CLA in liver (SCID mice; liver, mean ± SD, n = 8): 0.01 ± 0.01^2 g/100 g FAME | MPO colon [1]: 1.16 ± 0.23 U/mg protein | LA in faeces (BALB/c mice; faeces after 8 weeks): 27.4±7.16 | c9, t11 CLA in faeces (BALB/c mice; faeces harvested after 8 weeks): 0.35±0.25 g/100 g FAME | c9, t11 CLA in large intestine (BALB/c mice; large intestine, 8 weeks): 0.07±0.02 g/100 g FAME | c9, t11 CLA in liver (BALB/c mice; liver, 8 weeks): 0.05±0.03 g/100 g FAME | c9, t11 CLA in small intestine (BALB/c mice; small intestine, 8 weeks): 0.03±0.01
